Experiment [1] is filed under the species Mustela putorius furo. Put plainly: Inotropic activity as dose required to cause 20% positive or negative change in contractile force of papillary muscle from ferret (F). It counts as functional, Muscle tissue.
Experiment [2] concerns the target cAMP phosphodiesterase (Canis familiaris). Put plainly: Inhibition of canine cardiac cAMP phosphodiesterase (cAMP-PDE).
Experiment [3] concerns Canis familiaris. Description: Equieffective dose for heart rate in anesthetized dogs for a maximum dose of 3.0 mg/kg. Values Ranges From:0.7-2. Type of experiment: functional, Canis lupus familiaris.
Experiment [4] has as its system Canis familiaris. Description: Equieffective dose for mean arterial pressure in anesthetized dogs for a maximum dose of 3.0 mg/kg. Values Ranges From:0.1-1.4. It counts as functional, Canis lupus familiaris, Artery.
The test system of experiment [5] is Canis familiaris. Put plainly: Equieffective dose for contractility in anesthetized dogs for a maximum dose of 3.0 mg/kg. Values Ranges From:0.1-0.4. It counts as functional, Canis lupus familiaris.
For experiment [6], the species on record is Mustela putorius furo. Description: Inotropic activity as dose required to cause 20% positive or negative change in contractile force of papillary muscle from ferret (F). It counts as functional. The conditions noted are these: Muscle tissue.
The subject of experiment [7] is Canis familiaris. Put plainly: Equieffective dose for mean arterial pressure in anesthetized dogs for a maximum dose of 1.0 mg/kg. Values Ranges From :0.2,0.4. Type of experiment: functional, Canis lupus familiaris, Artery.
For experiment [8], the system named is Canis familiaris. Description: Equieffective dose for contractility in anesthetized dogs for a maximum dose of 1.0 mg/kg. Values Ranges From :0.02-0.05. Type of experiment: functional, Canis lupus familiaris.
The subject of experiment [9] is Canis familiaris. Put plainly: Equieffective dose for heart rate in anesthetized dogs for a maximum dose of 1.0 mg/kg. Values Ranges From :0.01-0.8. Type of experiment: functional, Canis lupus familiaris.
Experiment [10] relates to Canis familiaris. Description: Equieffective dose for contractility in anesthetized dogs for a maximum dose of 0.1 mg/kg. Values Ranges From :0.005-0.07. It counts as functional, Canis lupus familiaris.
Experiment [11] relates to Canis familiaris. Put plainly: Equieffective dose for mean arterial pressure in anesthetized dogs for a maximum dose of 0.1 mg/kg. Values Ranges From :0.02-0.04. It counts as functional, Canis lupus familiaris, Artery.
Experiment [12] concerns Canis familiaris. Put plainly: Equieffective dose for heart rate in anesthetized dogs for a maximum dose of 0.1 mg/kg. Values Ranges From :0.009-0.02. It counts as functional, Canis lupus familiaris.
For experiment [13], the system named is Canis familiaris. Put plainly: Equieffective dose for heart rate in anesthetized dogs for a maximum dose of 0.3 mg/kg. Values Ranges From :0.02-0.2. It counts as functional, Canis lupus familiaris.
Experiment [14] deals with Canis familiaris. Description: Equieffective dose for mean arterial pressure in anesthetized dogs for a maximum dose of 0.3 mg/kg. 0.07-0.3. It counts as functional, Canis lupus familiaris, Artery.
Experiment [15] concerns Canis familiaris. Put plainly: Equieffective dose for contractility in anesthetized dogs for a maximum dose of 0.3 mg/kg. Values Ranges From :0.01-0.2. Type of experiment: functional, Canis lupus familiaris.
For experiment [16], the system named is Canis familiaris. Description: Equieffective dose for contractility in anesthetized dogs for a maximum dose of 3.0 mg/kg. Values Ranges From :0.05-0.9. Type of experiment: functional, Canis lupus familiaris.
Experiment [17] relates to Canis familiaris. Description: Equieffective dose for heart rate in anesthetized dogs for a maximum dose of 3.0 mg/kg. Values Ranges From :0.08-0.6. It counts as functional, Canis lupus familiaris.
Experiment [18] has as its system Canis familiaris. Put plainly: Equieffective dose for mean arterial pressure in anesthetized dogs for a maximum dose of 3.0 mg/kg. Values Ranges From :0.6-1.5. It counts as functional, Canis lupus familiaris, Artery.
Experiment [19] concerns Canis familiaris. Put plainly: Equieffective dose for heart rate in anesthetized dogs for a maximum dose of 3.0 mg/kg. Values ranges from :0.05-0.2. Type of experiment: functional, Canis lupus familiaris.
Experiment [20] has as its system Canis familiaris. Description: Equieffective dose for mean arterial pressure in anesthetized dogs for a maximum dose of 3.0 mg/kg. Values Ranges From: 0.2-2.4. Type of experiment: functional, Canis lupus familiaris, Artery.
In experiment [21] the test system is Canis familiaris. Put plainly: Equieffective dose for contractility in anesthetized dogs for a maximum dose of 3.0 mg/kg. It counts as functional, Canis lupus familiaris.
For experiment [22], the system named is Canis familiaris. Description: Equieffective dose for contractility in anesthetized dogs for a maximum dose of 1.0 mg/kg. Values Ranges From :0.03-0.07. Type of experiment: functional, Canis lupus familiaris.
Experiment [23] relates to Canis familiaris. Description: Equieffective dose for mean arterial pressure in anesthetized dogs for a maximum dose of 1.0 mg/kg. Values Ranges From :0.04-1.0. It counts as functional, Canis lupus familiaris, Artery.
In experiment [24] the test system is Canis familiaris. Put plainly: Equieffective dose for heart rate in anesthetized dogs for a maximum dose of 1.0 mg/kg. Values Ranges From :0.04-0.3. Type of experiment: functional, Canis lupus familiaris.
Experiment [25] relates to Canis familiaris. Put plainly: Equieffective dose for heart rate in anesthetized dogs for a maximum dose of 3.0 mg/kg. Values Ranges From :0.3-1.0. Type of experiment: functional, Canis lupus familiaris.
Experiment [26] deals with Canis familiaris. Description: Equieffective dose for mean arterial pressure in anesthetized dogs for a maximum dose of 3.0 mg/kg. Values Ranges From :2.0. It counts as functional, Canis lupus familiaris, Artery.
Experiment [27] relates to Canis familiaris. Description: Equieffective dose for contractility in anesthetized dogs for a maximum dose of 3.0 mg/kg. Values Ranges From :0.2-1.0. It counts as functional, Canis lupus familiaris.

Here are results for 26 molecules from ChEMBL document CHEMBL1123800 (J Med Chem, 1987).

Structures are written as SMILES.

For `Cc1[nH]c(O)nc1C(=O)c1ccc(-c2ncc[nH]2)cc1`, the C20 in the experiment listed under Mustela putorius furo [1] came out at 1.1 µM. Also, the concentration for half-maximal inhibition (IC50) (commonly the concentration that gives 50% inhibition) in experiment [2] came to 27 µM.
The matching figures for `Cc1cn(-c2ccc(C(=O)c3[nH]c(O)nc3C)cc2)cn1`: 11 µM and 65 µM.
Regarding `Cc1[nH]c(O)nc1C(=O)c1ccc(-n2ccnc2C)cc1`, the C20 in the experiment listed under Mustela putorius furo [1] worked out at 1 µM. This molecule yielded a Heart rate with Canis familiaris [3] of 0.8. Also, the “Mean arterial blood pressure” value in the experiment with Canis familiaris [4] was 0.6. For the same molecule, the IC50 in experiment [2] was 30 µM. Further, the “Contractility (LV dP/dt)” value in the experiment with Canis familiaris [5] amounted to 0.3.
Take `CCc1[nH]c(O)nc1C(=O)c1ccc(-n2ccnc2C)cc1C`: in the experiment filed under Mustela putorius furo [1], the C20 is 1.3 µM. This molecule also registered an IC50 in [2] of 73 µM.
In the same order, the values of `CCc1[nH]c(O)nc1C(=O)c1ccc(-n2ccnc2)c(C)c1` are 0.05 µM and 2 µM.
In the case of `Cc1nc(O)[nH]c1C(=O)c1ccc(-n2c(C)nc(C)c2C)cc1`, the C20 entry in the experiment listed under Mustela putorius furo [6] is reported as “Not reached”. This molecule also came in with an IC50 in experiment [2] above 100 µM.
`CCc1[nH]c(O)nc1C(=O)c1ccc(-n2ccnc2C)cc1` displayed a C20 in the experiment filed under Mustela putorius furo [1] of 0.7 µM. Moreover, in the experiment on Canis familiaris [7], the “Mean arterial blood pressure” value worked out at 0.3. The “Contractility (LV dP/dt)” value in the experiment on Canis familiaris [8] was 0.03. The Heart rate in the experiment with Canis familiaris [9] came out at 0.3.
`CCCc1nccn1-c1ccc(C(=O)c2[nH]c(O)nc2CC)cc1` had a C20 in the experiment listed under Mustela putorius furo [1] of 1 µM. In experiment [2], this molecule showed an IC50 of 29 µM.
The matching figures for `CCc1[nH]c(O)nc1C(=O)c1ccc(-n2ccnc2)cc1C`: 0.2 µM and 4 µM.
On to `CCc1[nH]c(O)nc1C(=O)c1ccc(-n2ccnc2)cc1`, for which the C20 in the experiment filed under Mustela putorius furo [1] worked out at 0.063 µM. In addition, the “Contractility (LV dP/dt)” value with Canis familiaris [10] turned out to be 0.02. In experiment [2], this molecule returned a 50% inhibitory concentration (IC50) of 2 µM. Besides, the “Mean arterial blood pressure” value in the experiment on Canis familiaris [11] stood at 0.03. In the experiment with Canis familiaris [12], the Heart rate was found to be 0.016.
As to `CCc1[nH]c(O)nc1C(=O)c1ccc(-n2ccnc2C(C)C)cc1`, the C20 in the experiment listed under Mustela putorius furo [1] worked out at 16.3 µM. Also, the IC50 in experiment [2] stood at 40 µM.
In the same order, the values of `CCc1[nH]c(O)nc1C(=O)c1ccc(-n2ccnc2C)c(C)c1` are 0.2 µM and 2 µM.
Molecule `Cc1[nH]c(=O)c(C#N)cc1-c1ccncc1` [MILRINONE] came in with a C20 in the experiment filed under Mustela putorius furo [1] of 0.57 µM. The same molecule came in with a Heart rate in the experiment with Canis familiaris [13] of 0.06. Further, in the experiment with Canis familiaris [14], the “Mean arterial blood pressure” value was found to be 0.2. The “Contractility (LV dP/dt)” value in the experiment on Canis familiaris [15] is reported as 0.09.
For the molecule `CCc1[nH]c(O)nc1C(=O)c1ccc(-n2cc[n+](C)c2C)cc1`, in the experiment filed under Mustela putorius furo [6], the C20 entry is given as “Not reached”. The molecule further gave a half-maximal inhibitory concentration (IC50) in [2] above 100 µM.
The molecule `CCc1[nH]c(O)nc1C(=O)c1ccc(-n2cc(C)nc2CC)cc1` yielded a C20 in the experiment filed under Mustela putorius furo [1] of 21 µM. In experiment [2], this molecule came in with an IC50 of 19 µM.
The molecule `O=C1CCC(c2ccc(-n3ccnc3)cc2)=NN1` [IMAZODAN] returned a C20 in the experiment filed under Mustela putorius furo [1] of 0.3 µM. Also, in the experiment with Canis familiaris [16], the “Contractility (LV dP/dt)” value was found to be 0.3. In the experiment with Canis familiaris [17], this molecule returned a Heart rate of 0.3. Moreover, the “Mean arterial blood pressure” value in the experiment with Canis familiaris [18] was 1.
On to `Cc1[nH]c(O)nc1C(=O)c1ccc(-n2ccnc2)cc1`, for which the C20 in the experiment listed under Mustela putorius furo [1] was determined as 0.1 µM. Besides, the Heart rate with Canis familiaris [19] is 0.1. Besides, the half-maximal inhibitory concentration (IC50) in experiment [2] was 6 µM. In addition, the “Mean arterial blood pressure” value with Canis familiaris [20] came to 0.9. Moreover, the “Contractility (LV dP/dt)” value with Canis familiaris [21] is recorded as “<=0.1”.
With `CCc1[nH]c(O)nc1C(=O)c1ccc(Cn2ccnc2)cc1`, the C20 in the experiment listed under Mustela putorius furo [1] is 4 µM. In [2], this molecule gave an IC50 of 30 µM.
For `Cc1[nH]c(O)nc1C(=O)c1ccc(-n2cnc3ccccc32)cc1`, in the experiment filed under Mustela putorius furo [1], the C20 came to 11 µM. In addition, the IC50 in [2] stood at 20 µM.
The matching figures for `CCc1[nH]c(O)nc1C(=O)c1ccc(-n2ccnc2CCC(C)C)cc1`: 21.7 µM and 7 µM.
`Cc1nc(=O)c(C#N)c(NCc2cccnc2)[nH]1` [PELRINONE] yielded a C20 in the experiment listed under Mustela putorius furo [1] of 0.23 µM. Besides, the “Contractility (LV dP/dt)” value with Canis familiaris [22] is reported as 0.04. Besides, the “Mean arterial blood pressure” value in the experiment on Canis familiaris [23] is on record as 0.4. The molecule also yielded a Heart rate in the experiment on Canis familiaris [24] of 0.1. This molecule gave an IC50 in experiment [2] of 4 µM.
As for `CCc1[nH]c(O)nc1C(=O)c1ccc(-n2ccnc2CC)cc1`, in the experiment filed under Mustela putorius furo [1], the C20 is 0.1 µM. Also, in experiment [2], the IC50 amounted to 25 µM.
`CSc1ccc(C(=O)c2[nH]c(=O)[nH]c2C)cc1` [ENOXIMONE]: in the experiment filed under Mustela putorius furo [1], the C20 amounted to 3.18 µM. The molecule further gave a Heart rate in the experiment on Canis familiaris [25] of 0.6. The “Mean arterial blood pressure” value in the experiment with Canis familiaris [26] was 2. The “Contractility (LV dP/dt)” value with Canis familiaris [27] came out at 0.7.
In turn, `CCc1[nH]c(O)nc1C(=O)c1ccc(-c2ncc[nH]2)cc1` displayed a C20 in the experiment filed under Mustela putorius furo [1] of 0.4 µM. In experiment [2], the IC50 came to 15 µM.
In the same order, the values of `CCc1[nH]c(O)nc1C(=O)c1cccc(-n2ccnc2)c1` are 0.1 µM and 23 µM.
In the same order, the values of `Cc1[nH]c(O)nc1C(=O)c1ccc(-n2ccnc2CO)cc1` are 0.4 µM and 49 µM.
